Measurements as given in patent US11168073B2, “3,3-difluoroallylamines or salts thereof and pharmaceutical compositions comprising the same” (YUHAN CORPORATION, priority 2018, dated 2021).
Counter-ions that a name gives are not always drawn.

Key:
Type in all cases: biochemical
[1] = target: T1, recombinant human DAO (diamine oxidase) (Homo sapiens, UniProt P19801); assay: Activity evaluation on recombinant human DAO (Amplex Red/HRP-coupled assay, 1 mM putrescine substrate); details: 1 mM putrescine, read-out: Inhibitory Activity (IC50, nM) DAO
T1 construct: purchased R&D systems
T1 sequence (P19801 20-751): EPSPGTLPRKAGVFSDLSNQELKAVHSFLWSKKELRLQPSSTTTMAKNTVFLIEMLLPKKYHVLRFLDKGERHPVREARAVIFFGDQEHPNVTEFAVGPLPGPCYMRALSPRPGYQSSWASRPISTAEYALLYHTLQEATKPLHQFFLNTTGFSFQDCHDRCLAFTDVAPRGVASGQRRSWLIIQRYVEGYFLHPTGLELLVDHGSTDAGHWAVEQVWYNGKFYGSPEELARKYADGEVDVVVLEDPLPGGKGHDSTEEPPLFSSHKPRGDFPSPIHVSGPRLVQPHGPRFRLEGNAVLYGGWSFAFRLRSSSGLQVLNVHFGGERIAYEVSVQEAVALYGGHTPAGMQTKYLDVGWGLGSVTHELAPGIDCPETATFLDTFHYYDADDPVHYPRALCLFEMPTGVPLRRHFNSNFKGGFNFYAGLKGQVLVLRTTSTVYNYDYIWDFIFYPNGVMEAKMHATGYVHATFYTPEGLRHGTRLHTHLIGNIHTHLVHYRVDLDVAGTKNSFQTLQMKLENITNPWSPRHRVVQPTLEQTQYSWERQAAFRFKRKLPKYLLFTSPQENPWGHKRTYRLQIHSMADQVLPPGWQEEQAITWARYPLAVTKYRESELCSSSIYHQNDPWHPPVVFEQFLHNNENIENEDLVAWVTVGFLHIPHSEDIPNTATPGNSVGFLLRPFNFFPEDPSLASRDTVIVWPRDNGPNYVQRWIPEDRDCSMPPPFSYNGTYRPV
Procedure, shortened: (§1)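 Each oxidase is tested with its own substrate: MAO-A with 0.5 mM tyramine, MAO-B with 1 mM benzylamine, DAO with 1 mM putrescine. After 30 min enzyme-compound preincubation at 37 °C, Amplex Red (200 uM) plus HRP (1 U/mL) reports H2O2 as fluorescence; IC50 is fitted from eight-point curves.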

[2] = target: T2, recombinant human MAO-B (monoamine oxidase-B) (Homo sapiens, UniProt P27338); assay: Activity evaluation on recombinant human MAO-B (Amplex Red/HRP-coupled assay, 1 mM benzylamine substrate); details: 1 mM benzylamine, read-out: Inhibitory Activity (IC50, nM) MAO-B
T2 construct: purchased Sigma-Aldrich
T2 sequence (P27338 1-520): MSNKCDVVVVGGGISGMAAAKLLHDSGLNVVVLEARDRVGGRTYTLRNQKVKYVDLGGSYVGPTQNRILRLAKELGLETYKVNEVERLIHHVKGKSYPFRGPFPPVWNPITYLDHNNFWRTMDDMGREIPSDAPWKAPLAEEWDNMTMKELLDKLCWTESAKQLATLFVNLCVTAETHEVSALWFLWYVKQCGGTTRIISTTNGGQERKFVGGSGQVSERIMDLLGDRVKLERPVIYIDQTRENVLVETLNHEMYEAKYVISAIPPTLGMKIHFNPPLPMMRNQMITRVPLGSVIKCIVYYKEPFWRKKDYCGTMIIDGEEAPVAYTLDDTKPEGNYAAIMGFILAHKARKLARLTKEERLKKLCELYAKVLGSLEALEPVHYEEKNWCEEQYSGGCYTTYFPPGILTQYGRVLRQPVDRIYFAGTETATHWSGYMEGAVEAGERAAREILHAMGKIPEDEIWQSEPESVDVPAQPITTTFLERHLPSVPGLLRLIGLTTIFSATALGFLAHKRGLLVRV
Procedure, shortened: as §1

recombinant human VAP-1 = target: T3, recombinant human VAP-1 (Homo sapiens, UniProt Q16853); assay: Activity evaluation on recombinant human VAP-1 (Amplex Red/HRP-coupled hydrogen peroxide assay, benzylamine substrate); details: recombinant human VAP-1; 30 min preincubation at 37° C.; 1 mM benzylamine; read-out: Inhibitory Activity (IC50, nM) human VAP-1
T3 construct: purchased R&D systems
T3 sequence (Q16853 1-763): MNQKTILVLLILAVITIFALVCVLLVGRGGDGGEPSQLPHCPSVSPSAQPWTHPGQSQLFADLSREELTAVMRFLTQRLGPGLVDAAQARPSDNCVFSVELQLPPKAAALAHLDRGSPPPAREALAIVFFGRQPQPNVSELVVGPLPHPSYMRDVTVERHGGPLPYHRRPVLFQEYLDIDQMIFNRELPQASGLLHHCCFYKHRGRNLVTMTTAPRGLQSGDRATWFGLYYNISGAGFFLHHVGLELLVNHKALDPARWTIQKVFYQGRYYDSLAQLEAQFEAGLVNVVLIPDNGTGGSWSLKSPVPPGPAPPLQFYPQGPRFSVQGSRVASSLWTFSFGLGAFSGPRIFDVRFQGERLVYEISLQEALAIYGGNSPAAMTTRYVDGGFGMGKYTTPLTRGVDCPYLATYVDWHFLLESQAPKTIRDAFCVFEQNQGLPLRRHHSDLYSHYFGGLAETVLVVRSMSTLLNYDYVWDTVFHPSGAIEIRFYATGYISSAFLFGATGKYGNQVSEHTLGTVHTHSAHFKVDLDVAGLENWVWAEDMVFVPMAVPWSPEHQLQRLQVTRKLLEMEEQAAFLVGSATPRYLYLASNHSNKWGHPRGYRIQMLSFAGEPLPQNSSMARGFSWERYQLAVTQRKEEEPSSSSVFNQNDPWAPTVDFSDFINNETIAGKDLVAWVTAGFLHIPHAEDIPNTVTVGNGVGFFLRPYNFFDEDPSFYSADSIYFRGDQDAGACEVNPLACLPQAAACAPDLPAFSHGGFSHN
Procedure, shortened: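 Hydrogen peroxide from benzylamine (1 mM) oxidation by human recombinant VAP-1 detected via HRP-coupled Amplex Red (200 uM) fluorescence, kinetic over 1–2 h. Enzyme and compound preincubated 30 min at 37 °C, pH 7.4 phosphate; 8-point dose response, signal-rate decrease versus DMSO control fitted to four-parameter logistic for IC50.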

[3] = target: T4, recombinant human MAO-A (monoamine oxidase-A) (Homo sapiens, UniProt P21397); assay: Activity evaluation on recombinant human MAO-A (Amplex Red/HRP-coupled assay, 0.5 mM tyramine substrate); details: 0.5 mM tyramine, read-out: Inhibitory Activity (IC50, nM) MAO-A
T4 construct: purchased Sigma-Aldrich
T4 sequence (P21397 1-527): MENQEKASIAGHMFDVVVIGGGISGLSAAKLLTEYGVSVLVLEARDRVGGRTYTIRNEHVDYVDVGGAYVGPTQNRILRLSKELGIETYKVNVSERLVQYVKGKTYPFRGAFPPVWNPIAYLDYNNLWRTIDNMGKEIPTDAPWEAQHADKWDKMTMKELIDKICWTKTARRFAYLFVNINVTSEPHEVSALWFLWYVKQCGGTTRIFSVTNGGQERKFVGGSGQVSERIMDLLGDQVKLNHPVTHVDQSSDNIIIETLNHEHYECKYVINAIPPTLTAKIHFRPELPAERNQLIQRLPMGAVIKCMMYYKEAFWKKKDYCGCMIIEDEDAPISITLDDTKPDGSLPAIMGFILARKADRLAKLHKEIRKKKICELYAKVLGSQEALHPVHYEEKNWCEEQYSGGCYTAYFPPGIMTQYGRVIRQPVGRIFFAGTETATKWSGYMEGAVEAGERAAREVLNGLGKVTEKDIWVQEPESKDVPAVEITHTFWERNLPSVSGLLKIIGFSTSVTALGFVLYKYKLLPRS
Procedure, shortened: as §1

SMILES	IC50 [1] [nM]	IC50 [2] [nM]	IC50 (recombinant human VAP-1) [nM]	IC50 [3] [nM]
NCC(Cn1ncn(-c2ccc(-c3ccc4c(c3)OCO4)cc2F)c1=O)=C(F)F [Example 35, 2-[2-(aminomethyl)-3,3-difluoro-allyl]-4-[4-(1,3-benzodioxol-5-yl)-2-fluoro-phenyl]-1,2,4-triazol-3-one Trifluoroacetate]	540	33	0.3	> 100000
CCn1cc(-c2ccc(-n3cnn(CC(CN)=C(F)F)c3=O)c(F)c2)cn1 [Example 37, 2-[2-(aminomethyl)-3,3-difluoro-allyl]-4-[4-(1-ethylpyrazol-4-yl)-2-fluoro-phenyl]-1,2,4-triazol-3-one Trifluoroacetate]	860	880	0.5	> 100000
NCC(Cn1ncn(-c2ccc(-c3ccc(N4CCNCC4)cc3)nc2)c1=O)=C(F)F [Example 39, 2-[2-(aminomethyl)-3,3-difluoro-allyl]-4-[6-(4-piperazin-1-ylphenyl)-3-pyridyl]-1,2,4-triazol-3-one Ditrifluoroacetate]	310	46000	1.2	> 100000
NCC(Cn1ncn(-c2ccc(-c3ccc4c(c3)OCO4)nc2)c1=O)=C(F)F [Example 42, 2-[2-(aminomethyl)-3,3-difluoro-allyl]-4-[6-(1,3-benzodioxol-5-yl)-3-pyridyl]-1,2,4-triazol-3-one Trifluoroacetate]	250	34	0.3	> 100000

These reach a lower IC50 [1]. Values come first.

IC50 [1] [nM]	IC50 [2] [nM]	IC50 (recombinant human VAP-1) [nM]	IC50 [3] [nM]	SMILES
97	160	0.1	> 100000	Cc1cc(-c2ccc(-n3cnn(CC(CN)=C(F)F)c3=O)c(F)c2)cc2c1NC(=O)CC2 [Example 36, 6-[4-[1-[2-(aminomethyl)-3,3-difluoro-allyl]-5-oxo-1,2,4-triazol-4-yl]-3-fluoro-phenyl]-8-methyl-3,4-dihydro-1H-quinolin-2-one Trifluoroacetate]
24	450	0.4	> 100000	CS(=O)(=O)c1ccc(-c2ccc(-n3cnn(CC(CN)=C(F)F)c3=O)cn2)cc1 [Example 38, 2-[2-(aminomethyl)-3,3-difluoro-allyl]-4-[6-(4-methylsulfonylphenyl)-3-pyridyl]-1,2,4-triazol-3-one Trifluoroacetate]
12	200	0.3	> 100000	NCC(Cn1ncn(-c2ccc(-c3ccc(C(F)(F)F)nc3)nc2)c1=O)=C(F)F [Example 40, 2-[2-(aminomethyl)-3,3-difluoro-allyl]-4-[6-[6-(trifluoromethyl)-3-pyridyl]-3-pyridyl]-1,2,4-triazol-3-one Trifluoroacetate]
120	470	0.2	> 100000	CN(C)c1ccc(-c2ccc(-n3cnn(CC(CN)=C(F)F)c3=O)cn2)cn1 [Example 41, 2-[2-(aminomethyl)-3,3-difluoro-allyl]-4-[6-[6-(dimethylamino)-3-pyridyl]-3-pyridyl]-1,2,4-triazol-3-one Trifluoroacetate]
22	100	0.2	> 100000	Cc1cc(-c2ccc(-n3cnn(CC(CN)=C(F)F)c3=O)cn2)cc2c1NC(=O)CC2 [Example 43, 6-[5-[1-[2-(aminomethyl)-3,3-difluoro-allyl]-5-oxo-1,2,4-triazol-4-yl]-2-pyridyl]-8-methyl-3,4-dihydro-1H-quinolin-2-one Trifluoroacetate]
14	110	0.3	> 100000	CN1C(=O)CCc2cc(-c3ccc(-n4cnn(CC(CN)=C(F)F)c4=O)cn3)ccc21 [Example 44, 6-[5-[1-[2-(aminomethyl)-3,3-difluoro-allyl]-5-oxo-1,2,4-triazol-4-yl]-2-pyridyl]-1-methyl-3,4-dihydroquinolin-2-one Trifluoroacetate]
